For ten compounds, TGI and GI50 results are on record in PubChem BioAssay (NCI).

Where “and” joins values, the source holds several entries; their conditions need not be identical. Identical values can stand only once.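 Tested at 5 concentrations; 48 h exposure; 96-well plates; endpoints linearly interpolated, else capped at highest concentration. GI50 marks 50% less growth. Definition used: TGI = concentration required for complete inhibition of growth.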

Test systems include SK-MEL-28 melanoma; HCT-116 colon; SF-268 CNS; NCI-H522 lung; NCI-H460 lung; LOX IMVI melanoma; CAKI-1 renal; OVCAR-3 ovarian; SF-295 CNS; A498 renal.
What all share (assay): NCI-60 cell line screen, 48 h

As for `CCOC(=O)NC(=O)c1cn(C(CC)COC(=O)NCCCCCCNC(=O)OCC(CC)n2cc(C(=O)NC(=O)OCC)c(=O)[nH]c2=O)c(=O)[nH]c1=O` (stereo not drawn), the TGI in the assay on SK-MEL-28 melanoma, with HCT-116 colon, in the assay with SF-268 CNS, with NCI-H522 lung, in the assay on NCI-H460 lung and in the assay on LOX IMVI melanoma was over 100 µM in each case. Moreover, the TGI with CAKI-1 renal, with OVCAR-3 ovarian, in the assay with SF-295 CNS and in the assay with A498 renal was over 100 µM in each case.

Turning to `COC(=O)/C(=N/O)C(C(=O)C=C(C)C)C(=O)C(=O)Nc1nc2ccc([N+](=O)[O-])cc2s1` (stereo not drawn), the TGI with SK-MEL-28 melanoma is over 100 µM; with HCT-116 colon, over 100 µM; in the assay with SF-268 CNS, 99.2 µM; in the assay with NCI-H522 lung it was over 100 µM; in the assay on NCI-H460 lung it was over 100 µM; in the assay on LOX IMVI melanoma, 93.1 µM. In addition, the TGI in the assay on CAKI-1 renal is 97 µM; with OVCAR-3 ovarian, 76.1 µM; with SF-295 CNS it was over 100 µM; with A498 renal, 31 µM.

In the case of `Cc1cc(N/N=C/c2ccccn2)nc2ccccc12`, the GI50 with SK-MEL-28 melanoma was 0.895 µM; with HCT-116 colon, 0.393 µM; in the assay with SF-268 CNS, 0.44 µM; with NCI-H522 lung, 0.359 µM; in the assay on NCI-H460 lung, 0.349 µM; with LOX IMVI melanoma, 0.413 µM. Also, the GI50 was 0.313 µM in the assay with CAKI-1 renal, 0.382 µM with OVCAR-3 ovarian, 0.307 µM in the assay with SF-295 CNS and 0.633 µM in the assay with A498 renal. Besides, the TGI with SK-MEL-28 melanoma was determined as 16.8 µM; in the assay on HCT-116 colon, 5.81 µM; in the assay with SF-268 CNS it was 15.3 µM; in the assay with NCI-H522 lung, 4.81 µM; with NCI-H460 lung, 11.6 µM; in the assay with LOX IMVI melanoma, 10.9 µM. The TGI with CAKI-1 renal is 2.59 µM; in the assay with OVCAR-3 ovarian, 11 µM; in the assay with SF-295 CNS it was 3.2 µM; with A498 renal it was 7.05 µM.

In the case of `O=C(/C=C/c1ccccc1)c1ccccc1`, the TGI in the assay on SK-MEL-28 melanoma was over 10 µM; in the assay with HCT-116 colon it was 4.55 µM; with SF-268 CNS, over 10 µM; in the assay with NCI-H522 lung, over 10 µM; in the assay with NCI-H460 lung it was over 10 µM; in the assay on LOX IMVI melanoma it was 4.11 µM. The TGI with CAKI-1 renal, in the assay on OVCAR-3 ovarian, in the assay on SF-295 CNS and in the assay on A498 renal was over 10 µM each time.

On to `NCCNCC1CCNCC1`, for which the TGI in the assay on SK-MEL-28 melanoma, in the assay with HCT-116 colon, in the assay with SF-268 CNS, in the assay with NCI-H522 lung, with NCI-H460 lung and in the assay with LOX IMVI melanoma was over 100 µM in each case. The TGI with CAKI-1 renal, with OVCAR-3 ovarian, with SF-295 CNS and with A498 renal was over 100 µM in each case.

With `Cn1c(=O)c2c(nc(C(=N)SCC(=O)O)n2C)n(C)c1=O`, the TGI in the assay with SK-MEL-28 melanoma, with HCT-116 colon, in the assay on SF-268 CNS, with NCI-H522 lung, in the assay on NCI-H460 lung and in the assay with LOX IMVI melanoma was over 100 µM each time. The TGI in the assay with CAKI-1 renal was 99 µM; with OVCAR-3 ovarian, over 100 µM; with SF-295 CNS, over 100 µM; in the assay with A498 renal, 66.7 µM.

With `ClCCN(CCCl)c1ccc(CNc2ccccc2)cc1`, the GI50 in the assay with SK-MEL-28 melanoma is 36.8 µM; in the assay on HCT-116 colon it was 9.67 µM; in the assay on SF-268 CNS, 4.25 µM; with NCI-H522 lung it was 4.85 µM; in the assay on NCI-H460 lung, 1.21 µM; in the assay with LOX IMVI melanoma, 4.52 µM. The GI50 was 1.39 µM with CAKI-1 renal, 15.2 µM in the assay with OVCAR-3 ovarian, 3.16 µM with SF-295 CNS and 6.32 µM with A498 renal. The TGI in the assay on SK-MEL-28 melanoma is over 100 µM; in the assay with HCT-116 colon, over 100 µM; in the assay on SF-268 CNS, over 100 µM; in the assay with NCI-H522 lung it was 22 µM; in the assay on NCI-H460 lung, over 100 µM; in the assay with LOX IMVI melanoma it was 26 µM. The TGI with CAKI-1 renal is over 100 µM; in the assay on OVCAR-3 ovarian, over 100 µM; in the assay with SF-295 CNS it was over 100 µM; in the assay with A498 renal, 24.3 µM.

On to `Cc1cc(Nc2nc(-c3cn(-c4ccc(Cl)cc4)nn3)nc3ccccc23)n[nH]1`, for which the GI50 was 21.9 µM in the assay on SK-MEL-28 melanoma; 7.64 µM in the assay on HCT-116 colon; 14.6 µM in the assay on SF-268 CNS; over 50 µM with NCI-H522 lung; 5.65 µM in the assay on NCI-H460 lung; 9.7 µM in the assay on LOX IMVI melanoma. For the same compound, the GI50 with CAKI-1 renal was 2.31 µM; in the assay with OVCAR-3 ovarian, 10.5 µM; in the assay with SF-295 CNS, 7.6 µM; with A498 renal it was over 50 µM. The TGI in the assay on SK-MEL-28 melanoma is over 50 µM; with HCT-116 colon it was 25.4 µM; with SF-268 CNS it was over 50 µM; in the assay with NCI-H522 lung, over 50 µM; in the assay with NCI-H460 lung it was 36.3 µM; in the assay with LOX IMVI melanoma, over 50 µM. Further, the TGI with CAKI-1 renal is 14.7 µM; with OVCAR-3 ovarian, 23.4 µM; in the assay with SF-295 CNS, 38.5 µM; in the assay with A498 renal it was over 50 µM.

For the compound `COc1cccc(/C=N/[N-]C(=O)c2ccncc2)c1[O-].COc1cccc(/C=N/[N-]C(=O)c2ccncc2)c1[O-].[O]=[U](=[O])([OH2+])[OH2+]`, the GI50 with SK-MEL-28 melanoma was 10 µM; in the assay on HCT-116 colon, 4.8 µM; in the assay with SF-268 CNS, 4.83 µM; with NCI-H522 lung, 2.05 µM; in the assay with NCI-H460 lung it was 3.46 µM; in the assay on LOX IMVI melanoma it was 4.94 µM. Also, the GI50 in the assay on CAKI-1 renal was 3.91 µM; with OVCAR-3 ovarian, 3.08 µM; in the assay on SF-295 CNS, 5.86 µM; in the assay on A498 renal it was 21.5 µM. In addition, the TGI in the assay on SK-MEL-28 melanoma was over 56.7 µM; in the assay on HCT-116 colon, over 100 µM; with SF-268 CNS, 49.4 µM; with NCI-H522 lung it was 11 µM; in the assay with NCI-H460 lung, over 40.3 µM; in the assay on LOX IMVI melanoma, over 100 µM. The TGI in the assay on CAKI-1 renal was 22.1 µM; in the assay on OVCAR-3 ovarian it was over 100 µM; with SF-295 CNS, over 54.7 µM; in the assay on A498 renal it was 47.7 µM.

As for `OC(c1cc(-c2ccc(C(F)(F)F)cc2)nc(C(F)(F)F)c1)C1CCCCN1` (stereo not drawn), the GI50 is 1.83 µM and 2.55 µM in the assay with SK-MEL-28 melanoma; 1.53 µM in the assay with HCT-116 colon; 1.85 µM and 3.76 µM in the assay with SF-268 CNS; 1.81 µM in the assay on NCI-H460 lung; 1.48 µM in the assay with CAKI-1 renal; 1.85 µM and 2.69 µM in the assay with OVCAR-3 ovarian. Besides, the GI50 in the assay with SF-295 CNS is 1.38 µM and 2.84 µM; in the assay with A498 renal it was 1.47 µM. Moreover, the TGI in the assay with SK-MEL-28 melanoma is 3.27 µM and 5.97 µM; in the assay on HCT-116 colon it was 2.87 µM and 3.47 µM; in the assay with SF-268 CNS it was 3.46 µM and 13.1 µM; in the assay on NCI-H522 lung, 3.19 µM and 3.27 µM; in the assay on NCI-H460 lung, 3.4 µM and 3.95 µM; in the assay on LOX IMVI melanoma, 3.13 µM and 3.07 µM. The TGI is 2.81 µM and 17.7 µM in the assay on CAKI-1 renal; 3.28 µM and 6.76 µM in the assay with OVCAR-3 ovarian; 2.7 µM and 6.54 µM in the assay with SF-295 CNS; 2.82 µM and 6.07 µM in the assay on A498 renal.
